Laboratory results reported in patent US8334236B2, “Ring-fused 2-pyridone derivatives and herbicides” (Kumiai Chemical Industry Co., Ltd., priority 2009, dated 2012).
Values belong to the compound of their own block, whether it stands above or below them.

What was measured:
[1] = system: Echinochloa oryzicola Vasing; assay: Test Example 1: herbicidal effects in paddy field soil treatment; type: in vivo; set-up: scale not given here; details: 1000 g active ingredient per hectare, 21st day after treatment
Outline: (§1)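 Seeds sown in puddled paddy soil flooded to 3 cm; next day, diluted wettable powder dripped onto the water surface at 1000 g active ingredient per hectare. Plants grown in a greenhouse and herbicidal effect scored on a rating scale 21 days after treatment.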

[2] = system: Monochoria vaginalis (Burm. f.) Presl var. plantaginea (Roxb.) Solms-Laub.; assay: as above; type: in vivo; set-up: scale not given here; details: 1000 g active ingredient per hectare, 21st day after treatment
Outline: as §1

[3] = system: Scirpus juncoides Roxb. var. ohwianus. T. Koyama; assay: as above; type: in vivo; set-up: scale not given here; details: 1000 g active ingredient per hectare, 21st day after treatment
Outline: as §1

Setaria viridis [4] = assay: Test Example 2: herbicidal effects in farmland soil treatment; type: in vivo; set-up: scale not given here; details: 1000 g active ingredient per hectare, 21st day after treatment
[5] = system: Abutilon theophrasti medicus; assay: as above; type: in vivo; set-up: scale not given here; details: 1000 g active ingredient per hectare, 21st day after treatment
Outline: (§2)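 Pre-emergence soil treatment: wettable powder diluted in water sprayed on farmland soil over freshly sown seeds at 1000 g active ingredient per hectare in 1000 L/ha. Plants grown in greenhouse, herbicidal effect scored visually on a rating scale 21 days after treatment.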

Amaranthus retroflexus [6] = assay: as above; type: in vivo; set-up: scale not given here; details: 1000 g active ingredient per hectare, 21st day after treatment
Outline: as §2

Setaria viridis [7] = assay: Test Example 3: herbicidal effects in farmland foliar treatment; type: in vivo; set-up: scale not given here; details: 1000 g active ingredient per hectare, 14th day after treatment
[8] = system: Abutilon theophrasti medicus; assay: as above; type: in vivo; set-up: scale not given here; details: 1000 g active ingredient per hectare, 14th day after treatment
Outline: (§3)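 Weeds grown two weeks in farmland soil in a greenhouse, then sprayed over the foliage with diluted wettable powder at 1000 L/ha, delivering 1000 g active ingredient per hectare. Herbicidal effect scored 14 days after treatment against set rating criteria.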

Amaranthus retroflexus [9] = assay: as above; type: in vivo; set-up: scale not given here; details: 1000 g active ingredient per hectare, 14th day after treatment
Outline: as §3

[10] = system: Echinochloa crus-galli (L.) P. Beauv. var. crus-galli; assay: as above; type: in vivo; set-up: scale not given here; details: 1000 g active ingredient per hectare, 14th day after treatment
Outline: as §3

Echinochloa crus-galli = assay: Test Example 2: herbicidal effects in farmland soil treatment; type: in vivo; set-up: scale not given here; details: 1000 g active ingredient per hectare, 21st day after treatment

melting point: 226 to 228 °C
Compound: O=C1CCCC(O)=C1C(=O)c1cc2cccnc2n(-c2ccc3c(c2)OCCO3)c1=O [II-118, 1-(2,3-dihydrobenzo[b][1,4]dioxin-6-yl)-3-(2-hydroxy-6-oxo-1-cyclohexenecarbonyl)-1,8-naphthyridin-2(1H)-one]
Herbicidal effect index, Echinochloa oryzicola [1]: 5 | Herbicidal effect index, Monochoria vaginalis [2]: 5 | Herbicidal effect index, Scirpus juncoides [3]: 5 | Herbicidal effect index, Setaria viridis (Setaria viridis [4]): 5 | Herbicidal effect index, Abutilon thophrasti [5]: 5 | Herbicidal effect index, Amaranthus retroflexus (Amaranthus retroflexus [6]): 5 | Herbicidal effect index, Setaria viridis (Setaria viridis [7]): 5 | Herbicidal effect index, Abutilon theoprasti [8]: 5 | Herbicidal effect index, Amaranthus retroflexus (Amaranthus retroflexus [9]): 5 | Herbicidal effect index, Echinochloa crus-galli [10]: 5 | Herbicidal effect index, Echinochloa crus-galli (Echinochloa crus-galli): 5

melting point: 194 to 196 °C
Compound: Cn1c(=O)c(C(=O)C2=C(O)CCCC2=O)cc2ccc(C(F)(F)F)nc21 [II-136, 3-(2-hydroxy-6-oxo-1-cyclohexenecarbonyl)-1-methyl-7-(trifluoromethyl)-1,8-naphthyridin-2(1H)-one]
Herbicidal effect index, Echinochloa oryzicola [1]: 5 | Herbicidal effect index, Monochoria vaginalis [2]: 5 | Herbicidal effect index, Scirpus juncoides [3]: 5 | Herbicidal effect index, Setaria viridis (Setaria viridis [4]): 4 | Herbicidal effect index, Abutilon thophrasti [5]: 4 | Herbicidal effect index, Amaranthus retroflexus (Amaranthus retroflexus [6]): 5 | Herbicidal effect index, Setaria viridis (Setaria viridis [7]): 4 | Herbicidal effect index, Abutilon theoprasti [8]: 5 | Herbicidal effect index, Amaranthus retroflexus (Amaranthus retroflexus [9]): 5 | Herbicidal effect index, Echinochloa crus-galli [10]: 5 | Herbicidal effect index, Echinochloa crus-galli (Echinochloa crus-galli): 5
